Reference: ChEMBL document CHEMBL5727310, “Substituted morpholine derivatives having activity against pain” (2019)

Target: Sigma non-opioid intracellular receptor 1 (Homo sapiens, UniProt Q99720)
Assay: Receptor Radioligand Assay: To investigate binding properties of test compounds to human σ1 receptor, transfected HEK-293 membranes and [3H](+)-pentazocine (Perkin Elmer, NET-1056), as the radioligand, were used. The assay was carried out with 7 μg of membrane suspension, 5 nM of [3H](+)-pentazocine in either absence or presence of either buffer or 10 μM Haloperidol for total and non-specific binding, respectively. Binding buffer contained Tris-HCl 50 mM at pH 8. Plates were incubated at 37° C. for 120 minutes. After the incubation period, the reaction mix was then transferred to MultiScreen HTS, FC plates (Millipore), filtered and plates were washed 3 times with ice-cold 10 mM Tris-HCL (pH7.4). Filters were dried and counted at approximately 40% efficiency in a MicroBeta scintillation counter (Perkin-Elmer) using EcoScint liquid scintillation cocktail

Sequence of Sigma non-opioid intracellular receptor 1 (Q99720 whole entry): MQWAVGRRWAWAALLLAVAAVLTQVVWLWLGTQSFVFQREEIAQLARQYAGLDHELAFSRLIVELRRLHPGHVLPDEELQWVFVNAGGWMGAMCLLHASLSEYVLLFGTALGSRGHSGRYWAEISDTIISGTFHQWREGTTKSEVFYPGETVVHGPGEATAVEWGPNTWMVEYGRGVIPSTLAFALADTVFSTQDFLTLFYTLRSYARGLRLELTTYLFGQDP

Ki: < 500 nM
SMILES: CCN1CC(C2CCN(CCC(C)C)CC2)OC2(CC2)C1 (stereo unspecified)
